From patent publication EP0974362A1, “DRUGS CONTAINING ENZYME INHIBITORS AS THE ACTIVE INGREDIENT” (CHUGAI SEIYAKU KABUSHIKI KAISHA, priority 1997, dated 1998)
Like-named read-outs stand apart in the source and are kept apart here.

Assays:
[1] = target: T1, adenylosuccinate synthase (Oryctolagus cuniculus, UniProt G1TGN8); experiment: adenylosuccinate synthase inhibition (change of absorbance at 285 nm with time); assay type: biochemical
T1 sequence (G1TGN8 with tags, fused parts or gaps): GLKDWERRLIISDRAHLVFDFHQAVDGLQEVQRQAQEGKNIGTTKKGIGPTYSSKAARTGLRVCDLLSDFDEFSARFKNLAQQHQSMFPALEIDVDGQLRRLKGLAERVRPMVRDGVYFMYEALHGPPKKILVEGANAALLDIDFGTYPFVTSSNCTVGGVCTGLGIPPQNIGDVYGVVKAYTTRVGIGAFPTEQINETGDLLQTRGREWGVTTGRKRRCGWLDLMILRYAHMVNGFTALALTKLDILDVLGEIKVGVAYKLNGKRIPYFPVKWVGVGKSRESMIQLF
Text: As existing adenylosuccinate synthase inhibitors, hydantocidin-5'-monophosphate and hadacidin were chosen and compared for their level of enzyme inhibitory activity. Hydantocidin-5'-monophosphate was synthesized by debenzylating an intermediate synthesized by the method of Mio et al. (Tetrahedron, 47, 2133-2144, 1991), [2R, 3R, 4R, 5S]-6-N-acetyl-2-benzyloxymethyl-3,4-isopropylidene-1-oxa-6,8-diazaspiro[4,4]nonane-7,9-dione (Compound 24) and then converting it into its diphenyl phosphate ester, followed by deacetonidation, deacetylation and dephenylation by catalytic reduction. Hadacidin was synthesized by the method of Jahngen-Rossomand (Synth. Commun. 12, 601-606, 1982). Adenylosuccinate synthase was purified from rabbit muscles by the method of Fischer et al. (Methods in Enzymol. LI, 207-213). Each inhibitor (hydantocidin-5'-monophosphate or hadacidin at a final concentration of 1µM-1mM) (10 µl) and a substrate solution (50 mM HEPES, pH 7.3, 1 mM MgCl2, 0.2 mM GTP, 0.2 mM IMP, 2.5 mM Asp [each final concentration]) (60 µl) were added to adenylosuccinate synthase (10 µl) added dropwise into a microspectroscopic cell, and mixed together, then the microspectroscopic cell was immediately set in a spectrophotometer BECKMAN DU650 (Beckman) to determine change of absorbance at 285 nm with time for a period of 2 to 5 minutes after the reaction was started.

[2] = tested on: CCRF-CEM cells lacking MTAP activity; experiment: cell growth, MTT method; assay type: cell-based, human
Procedure: (§1) CCRF-CEM cells lacking MTAP activity and Raji cells having MTAP activity suspended in a modified MEM Zn^++ medium (GIBCO BRL) containing 10% dialyzed horse serum (GIBCO BRL) pretreated at 56°C for 30 minutes were plated on 96-well microplates at concentrations of 1.5 x 10^5 cells/ml and 5 x 10^4 cells/ml, respectively, and adenylosuccinate synthase inhibitors (hydantocidin-5'-monophosphate and hadacidin at a final concentration of 1 µM-1mM) were added to 100 µl/well in the presence or absence of a substrate for MTAP, MTA (final concentration 10 µM). After incubation in the presence of 5% CO2 at 37°C for 2 days, the survival cell number was counted by the MTT method (J. Immunol. Methods, 65, 55-63, 1983) (using Cell Titer 96® Aqueous Non-Radioactive Cell Proliferation Assay [Promega]) to assess effects on cell growth.

[3] = tested on: Raji cells having MTAP activity; experiment: cell growth, MTT method; assay type: cell-based, human
Procedure: as §1

[4] = tested on: human glioma cell line A-172 lacking MTAP activity; experiment: cell growth, MTT method, 3 days incubation; assay type: cell-based; details: Fig. 4A
Procedure: (§2) Cell extracts were reacted with [8-^14C] MTA, a substrate for MTAP, and the reaction solutions were partially developed by thin-layer chromatography to visualize spots corresponding to [^14C] adenine produced by the action of MTAP in the presence of [8-^14C] […] The same experiment was performed as for Raji cells in Fig. 3 except that incubation was performed for 3 days. […] The same experiment was performed as for Raji cells in Fig. 3 except that incubation was performed for 3 days and that [^3H] thymidine uptake for 5 hours was assayed. […]
as §1

[5] = tested on: human glioma cell line T98G having MTAP activity; experiment: cell growth, MTT method, 3 days incubation; assay type: cell-based; details: Fig. 4B
Procedure: as §2, §1

[6] = tested on: human non-small cell lung cancer cell line A549; experiment: cell growth, [3H] thymidine uptake; assay type: cell-based; details: 3 days incubation; [3H] thymidine uptake for 5 hours; Fig. 5A
Procedure: as §2, §1

[7] = tested on: human pancreatic cancer cell line BxPC-3; experiment: cell growth, [3H] thymidine uptake; assay type: cell-based; details: 3 days incubation; [3H] thymidine uptake for 5 hours; Fig. 5B
Procedure: as §2, §1

[8] = absence of MTA, compared with CCRF-CEM in presence of MTA, 2 days

| IC50 ([1]; enzyme purified from rabbit muscles; 0.2 mM GTP, 0.2 mM IMP, 2.5 mM Asp, pH 7.3; read-out: IC50 (inhibited adenylosuccinate synthase activity)) [µM] | Structure (SMILES) | IC50 ([1]; read-out: IC50 (inhibited adenylosuccinate synthase activity); enzyme purified from rabbit muscles; 0.2 mM GTP, 0.2 mM IMP, 2.5 mM Asp, pH 7.3) [µM] | IC50 ([2]; Homo sapiens, CCRF-CEM, 48 h, read-out: IC50 (cytotoxicity)) [µM] | level of cytotoxicity in the absence of MTA [2, 8] | cytotoxicity ([3]; MTA added (final concentration 10 µM), 2 days incubation) | level of cytotoxicity in the absence of MTA [3, 8] | toxicity [4] | toxicity [5] | growth inhibitory effects [6] | growth inhibitory effects [7] |
| --- | --- | --- | --- | --- | --- | --- | --- | --- | --- | --- |
| 10 | O=CN(O)CC(=O)O [hadacidin] | – | – | – | – | – | – | – | – | – |
| – | O=C1NC(=O)[C@@]2(N1)O[C@H](COP(=O)(O)O)[C@@H](O)[C@H]2O [hydantocidin-5'-monophosphate] | 0.03 | 30 | comparable | did not show cytotoxicity | comparable | showed selective toxicity | showed selective toxicity | showed growth inhibitory effects | showed growth inhibitory effects |
